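Each compound was tested at five concentrations against cells in 96-well plates for 48 hours. GI50 = concentration required for 50% inhibition of growth. TGI denotes the concentration required for complete inhibition of growth.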
Experiments:
Experiment in all cases: DTP human tumour cell line panel, 48 h
EKVX NSCLC = system: EKVX NSCLC
SK-MEL-28 melanoma = system: SK-MEL-28 melanoma
HOP-62 NSCLC = system: HOP-62 NSCLC
HL-60(TB) leukemia = system: HL-60(TB) leukemia
HCT-116 colon = system: HCT-116 colon
T-47D breast = system: T-47D breast
OVCAR-8 ovarian = system: OVCAR-8 ovarian
HT29 colon = system: HT29 colon
COLO 205 colon = system: COLO 205 colon
NCI-H23 lung = system: NCI-H23 lung
SK-MEL-5 melanoma = system: SK-MEL-5 melanoma
PC-3 prostate = system: PC-3 prostate
HCT-15 colon = system: HCT-15 colon
MDA-MB-231 breast = system: MDA-MB-231 breast
786-0 renal = system: 786-0 renal
OVCAR-5 ovarian = system: OVCAR-5 ovarian
LOX IMVI melanoma = system: LOX IMVI melanoma
U251 CNS = system: U251 CNS
HCC-2998 colon = system: HCC-2998 colon
RPMI-8226 leukemia = system: RPMI-8226 leukemia
SN12C renal = system: SN12C renal
DU-145 prostate = system: DU-145 prostate
SR leukemia = system: SR leukemia
BT-549 breast = system: BT-549 breast
OVCAR-4 ovarian = system: OVCAR-4 ovarian
NCI/ADR-RES ovarian = system: NCI/ADR-RES ovarian
NCI-H522 lung = system: NCI-H522 lung
SF-539 CNS = system: SF-539 CNS
UACC-62 melanoma = system: UACC-62 melanoma
MOLT-4 leukemia = system: MOLT-4 leukemia
UACC-257 melanoma = system: UACC-257 melanoma
KM12 colon = system: KM12 colon
SK-OV-3 ovarian = system: SK-OV-3 ovarian
SK-MEL-2 melanoma = system: SK-MEL-2 melanoma
NCI-H226 lung = system: NCI-H226 lung
ACHN renal = system: ACHN renal
HOP-92 NSCLC = system: HOP-92 NSCLC
SW-620 colon = system: SW-620 colon
MALME-3M melanoma = system: MALME-3M melanoma
SNB-19 CNS = system: SNB-19 CNS
IGROV1 ovarian = system: IGROV1 ovarian
HS 578T breast = system: HS 578T breast
CCRF-CEM leukemia = system: CCRF-CEM leukemia
SF-295 CNS = system: SF-295 CNS
A549 NSCLC = system: A549 NSCLC
K-562 leukemia = system: K-562 leukemia
MCF7 breast = system: MCF7 breast
MDA-MB-435 = system: MDA-MB-435
OVCAR-3 ovarian = system: OVCAR-3 ovarian
SF-268 CNS = system: SF-268 CNS
RXF 393 renal = system: RXF 393 renal
M14 melanoma = system: M14 melanoma
SNB-75 CNS = system: SNB-75 CNS
UO-31 renal = system: UO-31 renal
TK-10 renal = system: TK-10 renal
NCI-H460 lung = system: NCI-H460 lung
A498 renal = system: A498 renal

With `CSc1ccc(-c2ccccc(=O)c2O)cc1` the GI50 (EKVX NSCLC) was 280 nM, the TGI (EKVX NSCLC) was 3960 nM and the GI50 (SK-MEL-28 melanoma) was 663 nM. It also gave a TGI (SK-MEL-28 melanoma) of 32900 nM, a GI50 (HOP-62 NSCLC) of 540 nM and a TGI (HOP-62 NSCLC) of 50900 nM. For the same compound, the GI50 (HL-60(TB) leukemia) was 283 nM, the TGI (HL-60(TB) leukemia) was 1550 nM and the GI50 (HCT-116 colon) was 506 nM. It also gave a TGI (HCT-116 colon) of 37400 nM, a GI50 (T-47D breast) of 985 nM and a TGI (T-47D breast) of over 100000 nM. It also gave a GI50 (OVCAR-8 ovarian) of 390 nM, a TGI (OVCAR-8 ovarian) of 64800 nM and a GI50 (HT29 colon) of 714 nM. The TGI (HT29 colon) was over 100000 nM, the GI50 (COLO 205 colon) was 1980 nM and the TGI (COLO 205 colon) was over 100000 nM. It also gave a GI50 (NCI-H23 lung) of 688 nM, a TGI (NCI-H23 lung) of 28300 nM and a GI50 (SK-MEL-5 melanoma) of 413 nM. It also gave a TGI (SK-MEL-5 melanoma) of 5050 nM, a GI50 (PC-3 prostate) of 748 nM and a TGI (PC-3 prostate) of over 100000 nM. The GI50 (HCT-15 colon) was 172 nM, the TGI (HCT-15 colon) was 29700 nM and the GI50 (MDA-MB-231 breast) was 603 nM. For the same compound, the TGI (MDA-MB-231 breast) was over 100000 nM, the GI50 (786-0 renal) was 447 nM and the TGI (786-0 renal) was 12600 nM. It also gave a GI50 (OVCAR-5 ovarian) of 1640 nM, a TGI (OVCAR-5 ovarian) of over 100000 nM and a GI50 (LOX IMVI melanoma) of 336 nM. The TGI (LOX IMVI melanoma) was 17100 nM, the GI50 (U251 CNS) was 568 nM and the TGI (U251 CNS) was 24600 nM. For the same compound, the GI50 (HCC-2998 colon) was 594 nM, the TGI (HCC-2998 colon) was over 100000 nM and the GI50 (RPMI-8226 leukemia) was 428 nM. For the same compound, the TGI (RPMI-8226 leukemia) was 26900 nM, the GI50 (SN12C renal) was 878 nM and the TGI (SN12C renal) was 30300 nM. The GI50 (DU-145 prostate) was 849 nM, the TGI (DU-145 prostate) was over 100000 nM and the GI50 (SR leukemia) was 404 nM. The TGI (SR leukemia) was 14500 nM, the GI50 (BT-549 breast) was 873 nM and the TGI (BT-549 breast) was 35200 nM. It also gave a GI50 (OVCAR-4 ovarian) of 271 nM, a TGI (OVCAR-4 ovarian) of 67300 nM and a GI50 (NCI/ADR-RES ovarian) of 278 nM. For the same compound, the TGI (NCI/ADR-RES ovarian) was 2120 nM, the GI50 (NCI-H522 lung) was 470 nM and the TGI (NCI-H522 lung) was 55900 nM. The GI50 (SF-539 CNS) was 394 nM, the TGI (SF-539 CNS) was 11600 nM and the GI50 (UACC-62 melanoma) was 397 nM. The TGI (UACC-62 melanoma) was 2920 nM, the GI50 (MOLT-4 leukemia) was 348 nM and the TGI (MOLT-4 leukemia) was over 100000 nM. The GI50 (UACC-257 melanoma) was 749 nM, the TGI (UACC-257 melanoma) was over 100000 nM and the GI50 (KM12 colon) was 508 nM. The TGI (KM12 colon) was over 100000 nM, the GI50 (SK-OV-3 ovarian) was 551 nM and the TGI (SK-OV-3 ovarian) was over 100000 nM. The GI50 (SK-MEL-2 melanoma) was 966 nM, the TGI (SK-MEL-2 melanoma) was 31400 nM and the GI50 (NCI-H226 lung) was 1680 nM. For the same compound, the TGI (NCI-H226 lung) was 37000 nM, the GI50 (ACHN renal) was 397 nM and the TGI (ACHN renal) was 71100 nM. The GI50 (HOP-92 NSCLC) was 1610 nM, the TGI (HOP-92 NSCLC) was 73300 nM and the GI50 (SW-620 colon) was 386 nM. It also gave a TGI (SW-620 colon) of over 100000 nM, a GI50 (MALME-3M melanoma) of 2410 nM and a TGI (MALME-3M melanoma) of over 100000 nM. The GI50 (SNB-19 CNS) was 570 nM, the TGI (SNB-19 CNS) was over 100000 nM and the GI50 (IGROV1 ovarian) was 427 nM. The TGI (IGROV1 ovarian) was over 100000 nM, the GI50 (HS 578T breast) was 2770 nM and the TGI (HS 578T breast) was 99700 nM. For the same compound, the GI50 (CCRF-CEM leukemia) was 347 nM, the TGI (CCRF-CEM leukemia) was over 100000 nM and the GI50 (SF-295 CNS) was 437 nM. For the same compound, the TGI (SF-295 CNS) was 18300 nM, the GI50 (A549 NSCLC) was 896 nM and the TGI (A549 NSCLC) was 83800 nM. It also gave a GI50 (K-562 leukemia) of 447 nM, a TGI (K-562 leukemia) of over 100000 nM and a GI50 (MCF7 breast) of 322 nM. The TGI (MCF7 breast) was over 100000 nM, the GI50 (MDA-MB-435) was 646 nM and the TGI (MDA-MB-435) was over 100000 nM. For the same compound, the GI50 (OVCAR-3 ovarian) was 373 nM, the TGI (OVCAR-3 ovarian) was 29700 nM and the GI50 (SF-268 CNS) was 625 nM. For the same compound, the TGI (SF-268 CNS) was over 100000 nM, the GI50 (RXF 393 renal) was 976 nM and the TGI (RXF 393 renal) was 16200 nM. It also gave a GI50 (M14 melanoma) of 347 nM, a TGI (M14 melanoma) of 2680 nM and a GI50 (SNB-75 CNS) of 3120 nM. It also gave a TGI (SNB-75 CNS) of over 100000 nM, a GI50 (UO-31 renal) of 351 nM and a TGI (UO-31 renal) of 5200 nM. For the same compound, the GI50 (TK-10 renal) was 593 nM, the TGI (TK-10 renal) was over 100000 nM and the GI50 (NCI-H460 lung) was 371 nM. For the same compound, the TGI (NCI-H460 lung) was 10800 nM, the GI50 (A498 renal) was 2710 nM and the TGI (A498 renal) was 19000 nM.

Reference: PubChem BioAssay (NCI)
